Molecules are shown by their SMILES. Calls of active or inactive are those of the source. No rule for the calls is given here. Some results are limits rather than exact numbers.

A word on the EC50: it is the concentration that produces a half-maximal response. Usually EC90 stands for the concentration at which the effect reaches the 90% level. A lower EC90 goes with an effect from little substance. As a reminder, the CC50 is the concentration giving 50% cytotoxicity. A higher CC50 goes with better tolerance by the cells.

This test deals with virus-infected cells, CPE inhibition, dose response. Kind of test: PubChem AID 806. The conditions noted are these: for EC90: measured here: EC90 CPE inhibition; for CC50: measured here: cytotoxicity, cell viability IC50.

`CC(c1ccco1)N(C(=O)COc1ccccc1[N+](=O)[O-])c1ccccn1` (stereo not drawn): the EC50 is > 60 µM (inactive), the EC90 was above 60 µM and the CC50 was above 60 µM.
Take `O=C(CSc1ccc2nnc(-c3ccncc3)n2n1)NCc1ccco1`: the EC50 is > 60 µM (inactive), the EC90 is above 60 µM and the CC50 was above 60 µM.
As to `O=C1CC(C(=O)Nc2ccc(Br)cc2)C2(CCCC2)O1` (stereo not drawn), the EC50 is > 60 µM (inactive), the EC90 was above 60 µM and the CC50 is above 60 µM.
Regarding `COc1cccc(Nc2ncnc3c2cnn3-c2cccc(C)c2)c1`, the EC50 was > 60 µM (inactive), the EC90 was above 60 µM and the half-maximal cytotoxic concentration (CC50) was above 60 µM.
For `COc1ccc(C2=NOC(C(=O)Nc3cc(C)nn3-c3ccccc3)C2)cc1OC` (stereo not drawn), the EC50 was > 60 µM (inactive), the EC90 is above 60 µM and the CC50 was above 60 µM.
In the case of `Cc1ccc(SCC(=O)Nc2ccc(-c3nnc(-c4ccco4)o3)cc2)cc1`, the EC50 is > 60 µM (inactive), the EC90 was above 60 µM and the CC50 was above 60 µM.
`CCc1c(C)nc2[nH]nc(-c3ccccc3)n2c1=O`: the EC50 was > 60 µM (inactive), the EC90 is above 60 µM and the CC50 is above 60 µM.
As for `O=C1NC2=C(CCc3ccccc32)C(c2ccc(Br)cc2)N1` (stereo not drawn), the EC50 was 4.34 µM, the EC90 came out at 27.2 µM and the CC50 is above 60 µM.
On the same counts, the results for `Cc1cc(C(=O)Nc2c(C)n(C)n(-c3ccccc3)c2=O)cs1` are > 60 µM (inactive), above 60 µM and above 60 µM.
Take `CC1(C)Cc2c(c(N3CCOCC3)nc3sc4c(NN)ncnc4c23)CS1`: the EC50 was > 60 µM (inactive), the EC90 was above 60 µM and the CC50 worked out at 4.49 µM.
For `CC1CN(C(=O)c2cnn3c(C(F)F)cc(-c4ccccc4)nc23)CC(C)O1` (stereo not drawn), the EC50 was > 60 µM (inactive), the EC90 is above 60 µM and the CC50 was above 60 µM.
In the case of `O=C1CC(C(=O)Nc2ccccc2)C2(CCCCC2)O1` (stereo not drawn), the EC50 is > 60 µM (inactive), the EC90 is above 60 µM and the CC50 is above 60 µM.
As for `Cn1nc([N+](=O)[O-])nc1Sc1nnc(-c2ccccc2)o1`, the EC50 was > 60 µM (inactive), the EC90 is above 60 µM and the CC50 was above 60 µM.
With `CCS(=O)(=O)Nc1cc(-c2nc3cccnc3s2)ccc1C`, the EC50 is > 60 µM (inactive), the EC90 is above 60 µM and the CC50 is above 60 µM.
Turning to `CC(C)c1cccc(C(C)C)c1OCCn1ccnc1`, the EC50 was > 60 µM (inactive), the EC90 is above 60 µM and the CC50 was above 60 µM.
`CC1CCN(c2ccc(C(=O)NCc3cccs3)cn2)CC1`: the EC50 is > 60 µM (inactive), the EC90 is above 60 µM and the half-maximal cytotoxic concentration (CC50) was above 60 µM.
In the case of `CCOC(=O)/C=C1\SCC(=O)N1CC(=O)Nc1ccc(C(C)C)cc1`, the EC50 was > 60 µM (inactive), the EC90 is above 60 µM and the CC50 is above 60 µM.
Regarding `COc1ccc(OC)c(-n2c(SC)nnc2-c2c[nH]c3ccccc23)c1`, the EC50 was > 60 µM (inactive), the EC90 is above 60 µM and the CC50 was above 60 µM.
For the molecule `COc1ccc(-n2ncc3c(N4CCCc5ccccc54)ncnc32)cc1`, the EC50 is > 60 µM (inactive), the concentration for an effect of 90% (EC90) was above 60 µM and the CC50 is above 60 µM.
Turning to `Cc1ccc(-n2nc(C(=O)N3CCOCC3)cc2-c2ccc(Cl)cc2)cc1`, the EC50 is > 60 µM (inactive), the EC90 is above 60 µM and the CC50 stood at 7.33 µM.
For `CC(=O)Nc1ccc(Nc2ncnc3c2cnn3-c2ccccc2)cc1` the same measures were > 60 µM (inactive), above 60 µM and above 60 µM.
